These are literature values, as cited in US7494668B2, “Fast water-dispersible domperidone tablets” (Laboratorio Medinfar-Produtos Farmaceuticos, S.A., priority 2004, dated 2009).

As for `O=c1[nH]c2ccccc2n1CCCN1CCC(n2c(=O)[nH]c3cc(Cl)ccc32)CC1` [Domperidone, 5-chloro-1-[1-[3-(2-oxo-2,3-dihydro-1H-benzimidazol-1-yl)propyl]piperidine-4-yl]-1,3-dihydro-2H-benzimidazol-2-one], the solubility in water entry was “practically insoluble in water”. For maleate, the solubility in water entry was “soluble in water”.
